Laboratory results from ChEMBL document CHEMBL3507680, “University of Dundee, Gates Library screen for HepG2 cell viability”.

Experiment: Human HepG2 cell viability assay in 384 well format
Type: toxicity, cell-based
Set-up: dose 125 nL, time 70.5 hour; cytotoxicity at 70.5 h: concentration not given beside the values
Conditions: HepG2 cells, read-out: Inhibition

CN(C)CCN(C)c1cc(N2CCN(c3ccccn3)CC2)ncn1
cytotoxicity at 70.5 h: 13.5%

CC(C)N(Cc1ccc(C(F)(F)F)nc1)Cc1cnn(C)c1
cytotoxicity at 70.5 h: -6.85%

Cc1cc(C(=O)N2CCn3cc(CN4CCOCC4)nc3C2)no1
cytotoxicity at 70.5 h: -7.09%

CC(C)CCn1[nH]c(CNc2ccc(F)cc2)nc1=O
cytotoxicity at 70.5 h: -10.3%

COc1ccc(OCc2noc(CN(C)C3CCS(=O)(=O)C3)n2)cc1 (configuration not stated)
cytotoxicity at 70.5 h: -5.76%

Cc1ccsc1[C@@H]1CCN(C(=O)CCc2n[nH]c(C)c2C)C[C@H]1O
cytotoxicity at 70.5 h: 0.289%

CN(Cc1ccc2c(c1)OCCO2)C(=O)Cn1cccnc1=O
cytotoxicity at 70.5 h: 3.46%

Cc1cnc(CN2CCN(c3ccc4nncn4n3)C(C)C2)cn1 (configuration not stated)
cytotoxicity at 70.5 h: -15.4%

CS(=O)(=O)CCN1CCCC1c1noc(C2CC2)n1 (configuration not stated)
cytotoxicity at 70.5 h: 0.883%

O=C(CN1CCN(c2ccnc3c(F)ccc(F)c23)CC1)N1CCCC1
cytotoxicity at 70.5 h: 8.2%

COCC1(NC(=O)Nc2nc(C)ns2)CCCC1
cytotoxicity at 70.5 h: -13.9%

CCC(=O)N1Cc2nccn2CC(CN(C)Cc2cccnc2)C1 (configuration not stated)
cytotoxicity at 70.5 h: -17.9%

CC(c1nc(C2CC2)no1)N1CCN(Cc2ccccc2)CC1 (configuration not stated)
cytotoxicity at 70.5 h: -4.04%

Cc1cn2cc(C(=O)NC3CCCN(c4ncccn4)C3)ccc2n1 (configuration not stated)
cytotoxicity at 70.5 h: 1.08%

CCOCC1CN(c2ccc(C)nn2)Cc2cnn(CC)c21 (configuration not stated)
cytotoxicity at 70.5 h: -5.73%

N[C@@H](Cc1ccccc1)c1nnc(S(=O)(=O)Cc2ccccc2)o1
cytotoxicity at 70.5 h: 15.6%

Cc1cc(C(=O)N2CCOC(c3nc(C(C)C)n[nH]3)C2)no1 (configuration not stated)
cytotoxicity at 70.5 h: -11.9%

Cc1cccc(S(=O)(=O)NC2CCN(CC(F)(F)F)C2)c1 (configuration not stated)
cytotoxicity at 70.5 h: -15.5%

O=C(Cc1ccco1)N1C[C@@H]2COC[C@]2(COCC2CCOCC2)C1
cytotoxicity at 70.5 h: -7.33%

O=C(Cc1csc(-c2ccoc2)n1)NCCC(=O)N1CCCCC1
cytotoxicity at 70.5 h: -2.09%

CCCc1nc(CNCC2CCCN2c2cccnn2)cs1 (configuration not stated)
cytotoxicity at 70.5 h: 11.9%

CN1CCCN(C(=O)c2cc3c(s2)CCN3C(=O)C2CC2)CC1
cytotoxicity at 70.5 h: -3.39%

CCN(Cc1cc(F)c(OC)c(Cl)c1)Cc1noc(CC(C)C)n1
cytotoxicity at 70.5 h: -10.5%

CNC(=O)C(C)CNC(=O)c1coc(COc2cccc(F)c2F)n1 (configuration not stated)
cytotoxicity at 70.5 h: -14.8%

O=C(c1cc(C2CC2)on1)N1CCC(Oc2ncccc2Br)CC1
cytotoxicity at 70.5 h: -13.4%

CC(C)(CO)NC(=O)C1CCC(=O)N(Cc2ccc(Cl)cc2)C1 (configuration not stated)
cytotoxicity at 70.5 h: -8.51%

CN(C)c1cc(C(=O)N2CCCC(n3cccn3)C2)ccn1 (configuration not stated)
cytotoxicity at 70.5 h: -11.4%

CCN1Cc2ccccc2N(C(=O)C2CCC2)CCC1=O
cytotoxicity at 70.5 h: -5.17%

COc1ccccc1CCN[C@@H]1c2ccccc2C2(CCNCC2)[C@H]1O
cytotoxicity at 70.5 h: -4.74%

Cc1cn(CC(=O)Nc2cc(C(C)(C)C)nn2C)cn1
cytotoxicity at 70.5 h: -5.53%

Cc1nn(C)c2cnn(CC(=O)NCc3ccc(F)cc3)c12
cytotoxicity at 70.5 h: 12.4%

Nc1ccnc(CNc2cc(F)ccc2OCC2CCCO2)n1 (configuration not stated)
cytotoxicity at 70.5 h: -9.07%

COc1ccc(O)c(C(=O)NCC2CCCN(C3CCOCC3)C2)c1 (configuration not stated)
cytotoxicity at 70.5 h: -10.8%

Cn1nc(Cn2cccn2)c2c1CN(C1CCOCC1)C2
cytotoxicity at 70.5 h: -0.608%

Cc1cnn(CC2CCCN2C(=O)CCc2ccsc2)c1 (configuration not stated)
cytotoxicity at 70.5 h: -5.3%

COC(=O)N1CCc2ccccc2C1C(=O)NCC(F)(F)F (configuration not stated)
cytotoxicity at 70.5 h: -5.95%

Cc1cc(C)c(CNC(=O)N2CCOC(c3ccccc3)C2)c(=O)[nH]1 (configuration not stated)
cytotoxicity at 70.5 h: -8.25%

CS(=O)(=O)N1CCO[C@@H]2CN(Cc3ccc(F)cc3)CC[C@@H]2C1
cytotoxicity at 70.5 h: -4.41%

CS(=O)(=O)CCCNC1CCCN(Cc2noc(C3CC3)n2)C1 (configuration not stated)
cytotoxicity at 70.5 h: -7.07%

CC(C)(NS(C)(=O)=O)c1nc(-c2ccc(F)cc2Cl)no1
cytotoxicity at 70.5 h: -6.02%

CC(C)n1ncc2c1NC(=O)CC2c1ccccc1Cl (configuration not stated)
cytotoxicity at 70.5 h: -6.71%

CCN(CC)C(=O)CCNc1cncc(-n2nc(C)cc2C)n1
cytotoxicity at 70.5 h: -1.19%

O=C1CCCN1CCc1nc(-c2ccsc2)no1
cytotoxicity at 70.5 h: -14.2%

Cc1cc(OCC(=O)NC(C)c2ccc(N3CCOCC3)cc2)no1 (configuration not stated)
cytotoxicity at 70.5 h: -3.83%

CN1C[C@H]2N(c3ncccn3)CCC[C@@]2(C(=O)NCC2CC2)C1
cytotoxicity at 70.5 h: -6.84%

CSC1=Nc2c(cnn2-c2ccc(Cl)cc2)C2=NCCCN12
cytotoxicity at 70.5 h: -7.03%

CCCNC(=O)CNc1ccc2c(c1)N(C(=O)OC(C)(C)C)CCC2
cytotoxicity at 70.5 h: 2.81%

Cc1nc(C)n(C2CCCN(C(=O)c3cccc4[nH]ncc34)C2)n1 (configuration not stated)
cytotoxicity at 70.5 h: -6.19%

Cc1cc(Nc2ccc(F)cn2)cc(C2CCCN2)n1 (configuration not stated)
cytotoxicity at 70.5 h: -7.05%

Cc1ccc(C(C)NC(=O)N2CCN(S(C)(=O)=O)CC2)o1 (configuration not stated)
cytotoxicity at 70.5 h: 1.52%

Cc1noc(C)c1CN1CCCC2(C1)CN(Cc1nccn1C)CCO2 (configuration not stated)
cytotoxicity at 70.5 h: -8.03%

COc1ccc(C(C)NCCc2ccc(NC(C)=O)cc2)cc1F (configuration not stated)
cytotoxicity at 70.5 h: -4.18%

CC(C)Oc1ncccc1CNC(=O)N1CCCC1c1ccsc1 (configuration not stated)
cytotoxicity at 70.5 h: -0.144%

CN(Cc1nccn1C)S(=O)(=O)N1CCCC1c1ccco1 (configuration not stated)
cytotoxicity at 70.5 h: -11.4%

O=C(c1ccn(-c2cccc(F)c2)n1)N1CCN(CCO)CC1
cytotoxicity at 70.5 h: -5.78%

Fc1cccnc1O[C@@H]1CC[C@H]2[C@H]1OCCN2Cc1nccs1
cytotoxicity at 70.5 h: -2.76%

COC(=O)C(C)(C)NC(=O)c1cnc(C(C)(C)C)s1
cytotoxicity at 70.5 h: -1.58%
